Test results as given in PubChem BioAssay AID256 (DTP/NCI, 2004).
Where “and” joins values, the source holds several entries; their conditions need not be identical. Equal values may be shown once. Inconclusive results and toxic doses are left out. How the source made its calls: active means survival T/C of 150% or more; inactive means T/C below 125% in these data.

System: CD2F1 mice, L1210 leukemia ip, survival T/C
Assay: NCI In Vivo Anticancer Drug Screen. Data for tumor model L1210 Leukemia (intraperitoneal) in CD2F1 (CDF1) mice
Conditions: higher = longer survival
Procedure, shortened: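 Antitumor effect is scored in animals hosting a serially transplanted tumor. Values compare compound-dosed animals against vehicle-only controls as a simple quotient.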

[1] = endpoint: mean survival time, dose: 100.0 mg/kg/injection, schedule: Q01DX009 (ip), vehicle: saline with Tween-80
[2] = endpoint: mean survival time, dose: 100.0 mg/kg/injection, schedule: Q04DX003 (ip), vehicle: saline with Tween-80
[3] = endpoint: mean survival time, dose: 200.0 mg/kg/injection, schedule: Q01DX009 (ip), vehicle: saline with Tween-80
[4] = endpoint: mean survival time, dose: 200.0 mg/kg/injection, schedule: Q04DX003 (ip), vehicle: saline with Tween-80
[5] = endpoint: mean survival time, dose: 400.0 mg/kg/injection, schedule: Q04DX003 (ip), vehicle: saline with Tween-80
[6] = endpoint: mean survival time, dose: 25.0 mg/kg/injection, schedule: Q04DX003 (ip), vehicle: saline with Tween-80
[7] = endpoint: mean survival time, dose: 50.0 mg/kg/injection, schedule: Q04DX003 (ip), vehicle: saline with Tween-80
[8] = endpoint: mean survival time, dose: 50.0 mg/kg/injection, schedule: Q01DX009 (ip), vehicle: saline with Tween-80
[9] = endpoint: mean survival time, dose: 50.0 mg/kg/injection, schedule: Q04DX002 (ip), vehicle: saline with Tween-80
[10] = endpoint: mean survival time, dose: 75.0 mg/kg/injection, schedule: Q01DX001 (ip), vehicle: saline
[11] = endpoint: mean survival time, dose: 150.0 mg/kg/injection, schedule: Q01DX001 (ip), vehicle: saline
[12] = endpoint: mean survival time, dose: 100.0 mg/kg/injection, schedule: Q04DX002 (ip), vehicle: saline with Tween-80
[13] = endpoint: mean survival time, dose: 200.0 mg/kg/injection, schedule: Q04DX002 (ip), vehicle: saline with Tween-80
[14] = endpoint: mean survival time, dose: 400.0 mg/kg/injection, schedule: Q04DX002 (ip), vehicle: saline with Tween-80
[15] = endpoint: mean survival time, dose: 25.0 mg/kg/injection, schedule: Q01DX009 (ip), vehicle: saline with Tween-80
[16] = endpoint: mean survival time, dose: 25.0 mg/kg/injection, schedule: Q01DX009 (ip), vehicle: water
[17] = endpoint: mean survival time, dose: 50.0 mg/kg/injection, schedule: Q01DX009 (ip), vehicle: water
[18] = endpoint: mean survival time, dose: 100.0 mg/kg/injection, schedule: Q01DX009 (ip), vehicle: water
[19] = endpoint: mean survival time, dose: 100.0 mg/kg/injection, schedule: Q01DX001 (ip), vehicle: saline with Tween-80
[20] = endpoint: mean survival time, dose: 12.5 mg/kg/injection, schedule: Q01DX009 (ip), vehicle: water

Measured: T/C

CCCCN=C(N)CCl
inactive: endpoint: mean survival time, dose: 25.0 mg/kg/injection, schedule: Q04DX002 (ip), vehicle: saline 100 % of control | endpoint: mean survival time, dose: 50.0 mg/kg/injection, schedule: Q04DX002 (ip), vehicle: saline 100 % of control | endpoint: mean survival time, dose: 100.0 mg/kg/injection, schedule: Q04DX002 (ip), vehicle: saline 100 % of control and 111 % of control

COc1c(C)ccc2c1CCN1C3=C(CCC21)CC1(CC3)OCCO1 (configuration not stated)
inactive: [1] 95 % of control | [2] 92 % of control | [3] 89 % of control | [4] 94 % of control | [5] 94 % of control

CCNC(=S)Nc1ccc(Cl)cc1
inactive: [6] 104 % of control | [7] 101 % of control | [2] 91 % of control

Cc1cc(O)c(C)c(C)c1Cl
inactive: [8] 102 % of control | [1] 104 % of control | [2] 94 % of control | [3] 91 % of control | [4] 98 % of control

O=C(NCCNC(=O)c1ccccc1)c1ccccc1
inactive: endpoint: mean survival time, dose: 6.25 mg/kg/injection, schedule: Q04DX002 (ip), vehicle: saline with Tween-80 97 % of control | endpoint: mean survival time, dose: 12.5 mg/kg/injection, schedule: Q04DX002 (ip), vehicle: saline with Tween-80 93 % of control | endpoint: mean survival time, dose: 25.0 mg/kg/injection, schedule: Q04DX002 (ip), vehicle: saline with Tween-80 93 % of control | [9] 89 % of control | endpoint: median survival time, dose: 50.0 mg/kg/injection, schedule: Q04DX002 (ip), vehicle: saline with Tween-80 94 % of control

CCCCNCCC(=O)c1ccc(Cl)cc1
inactive: [6] 98 % of control | [7] 98 % of control

CN(Cc1ccccc1)CC1(CO)CC=CCC1 (configuration not stated)
inactive: [10] 97 % of control | [11] 100 % of control

c1ccc(CN2CCNCC2)cc1
inactive: endpoint: mean survival time, dose: 6.25 mg/kg/injection, schedule: Q04DX003 (ip), vehicle: saline with Tween-80 96 % of control | endpoint: mean survival time, dose: 12.5 mg/kg/injection, schedule: Q04DX003 (ip), vehicle: saline with Tween-80 96 % of control | [6] 101 % of control

C1=CC=CN(c2ccccc2)C=C1
inactive: endpoint: mean survival time, dose: 100.0 mg/kg/injection, schedule: Q04DX003 (ip), vehicle: other 106 % of control | endpoint: mean survival time, dose: 200.0 mg/kg/injection, schedule: Q04DX003 (ip), vehicle: other 95 % of control | endpoint: mean survival time, dose: 400.0 mg/kg/injection, schedule: Q04DX003 (ip), vehicle: other 97 % of control

COc1ccc2c(ccc3cc(OC)ccc32)c1
inactive: [9] 93 % of control | [12] 100 % of control | [13] 93 % of control

Cc1cccc(OCC(O)CN2CC2)c1 (configuration not stated)
inactive: endpoint: median survival time, dose: 12.5 mg/kg/injection, schedule: Q01DX005 (ip), vehicle: saline with Tween-80 97 % of control and 107 % of control | endpoint: median survival time, dose: 25.0 mg/kg/injection, schedule: Q01DX005 (ip), vehicle: saline with Tween-80 115 % of control and 111 % of control | endpoint: median survival time, dose: 36.0 mg/kg/injection, schedule: Q01DX005 (ip), vehicle: saline with Tween-80 104 % of control | endpoint: median survival time, dose: 50.0 mg/kg/injection, schedule: Q01DX005 (ip), vehicle: saline with Tween-80 113 % of control and 108 % of control | endpoint: median survival time, dose: 60.0 mg/kg/injection, schedule: Q01DX005 (ip), vehicle: saline with Tween-80 113 % of control | endpoint: median survival time, dose: 100.0 mg/kg/injection, schedule: Q01DX005 (ip), vehicle: saline with Tween-80 106 % of control | endpoint: median survival time, dose: 166.66 mg/kg/injection, schedule: Q01DX005 (ip), vehicle: saline with Tween-80 110 % of control

O=c1[nH][nH]c2ccccc12
inactive: [2] 98 % of control | [4] 94 % of control | [5] 98 % of control

CC(=O)Nc1cc(CN2CCCCC2)c(O)c2ncccc12
inactive: endpoint: mean survival time, dose: 75.0 mg/kg/injection, schedule: Q01DX001 (ip), vehicle: other 102 % of control | endpoint: mean survival time, dose: 150.0 mg/kg/injection, schedule: Q01DX001 (ip), vehicle: other 102 % of control

O=CCCOCCCl
inactive: [2] 103 % of control | [4] 95 % of control | [5] 100 % of control

C=C(NC(=O)CN)C(=O)O
inactive: [12] 100 % of control | [13] 95 % of control | [14] 95 % of control

Nc1ccc(CSc2ccccc2)cc1F
inactive: [2] 93 % of control | [4] 92 % of control | [5] 108 % of control

c1ccc(N/N=C(/C[n+]2cc3ccccc3c3ccccc32)c2ccccc2)cc1
inactive: endpoint: mean survival time, dose: 100.0 mg/kg/injection, schedule: Q04DX003 (ip), vehicle: Klucel (hydroxypropylcellulose) (HPC) 94 % of control | endpoint: mean survival time, dose: 200.0 mg/kg/injection, schedule: Q04DX003 (ip), vehicle: Klucel (hydroxypropylcellulose) (HPC) 106 % of control | endpoint: mean survival time, dose: 400.0 mg/kg/injection, schedule: Q04DX003 (ip), vehicle: Klucel (hydroxypropylcellulose) (HPC) 109 % of control

CC1CCc2c(ccc3ccccc23)C1=O (configuration not stated)
inactive: [1] 97 % of control | [2] 97 % of control | [3] 95 % of control | [4] 97 % of control | endpoint: mean survival time, dose: 400.0 mg/kg/injection, schedule: Q01DX009 (ip), vehicle: saline with Tween-80 97 % of control | [5] 94 % of control

O=C(C[n+]1ccccc1)N/N=C/c1c(O)ccc2ccccc12
inactive: [15] 100 % of control | [8] 99 % of control | [1] 99 % of control

CCCCCCCCC1C(CCCCCCCC(=O)N2CCCC2)C2(Cl)C(Cl)=C(Cl)C1(Cl)C2(Cl)Cl (configuration not stated)
inactive: [10] 98 % of control | [11] 104 % of control | endpoint: mean survival time, dose: 300.0 mg/kg/injection, schedule: Q01DX001 (ip), vehicle: saline 96 % of control

O=C(CCl)N1c2ccccc2Sc2ccccc21
inactive: [16] 93 % of control | [17] 91 % of control | [18] 95 % of control | endpoint: mean survival time, dose: 200.0 mg/kg/injection, schedule: Q01DX009 (ip), vehicle: water 95 % of control

CCN(CC)C(=O)Cc1ccc2c3c(cccc13)CC2
inactive: [2] 98 % of control | [4] 98 % of control | [5] 92 % of control

CCOC(=O)C1CC(=O)C2/C(=C(\O)c3ccccc3)C=C([N+](=O)[O-])C1C2[N+](=O)[O-] (configuration not stated)
inactive: [12] 94 % of control | [13] 94 % of control | [14] 96 % of control

CCOC(=O)c1c(O)c2c([nH]c1=O)CCc1ccccc1-2
inactive: endpoint: mean survival time, dose: 12.5 mg/kg/injection, schedule: Q01DX009 (ip), vehicle: saline with Tween-80 98 % of control | endpoint: mean survival time, dose: 25.0 mg/kg/injection, schedule: Q01DX001 (ip), vehicle: saline with Tween-80 98 % of control | [15] 95 % of control | endpoint: mean survival time, dose: 50.0 mg/kg/injection, schedule: Q01DX001 (ip), vehicle: saline with Tween-80 93 % of control | [8] 95 % of control | [19] 103 % of control

NC(N)=Nc1ccc(C(=O)Oc2ccc([N+](=O)[O-])cc2)cc1
inactive: [1] 112 % of control | [3] 102 % of control

COC(=O)c1cc(-c2ccc(Cl)cc2)nc2cc(Cl)c(OC)cc12
inactive: endpoint: mean survival time, dose: 100.0 mg/kg/injection, schedule: Q01DX001 (ip), vehicle: saline 92 % of control | endpoint: mean survival time, dose: 200.0 mg/kg/injection, schedule: Q01DX001 (ip), vehicle: saline 87 % of control

[O-][n+]1cccc2ccc3ccccc3c21
inactive: endpoint: mean survival time, dose: 50.0 mg/kg/injection, schedule: Q01DX009 (ip), vehicle: other 101 % of control | endpoint: mean survival time, dose: 100.0 mg/kg/injection, schedule: Q01DX009 (ip), vehicle: other 101 % of control

COc1ccc(-c2nccc3cc(OC)c(OC)cc23)cc1OC
inactive: [20] 95 % of control | [16] 95 % of control | [17] 103 % of control

CC/C(=C/c1ccc2c(c1)OCO2)[N+](=O)[O-]
inactive: [19] 105 % of control

CCOC(=O)C(NCc1ccccc1)C(=O)OCC
inactive: [20] 96 % of control | [16] 98 % of control | [17] 101 % of control | [18] 93 % of control

N/C(=N\N=C(c1ccccc1)c1ccccc1)N[N+](=O)[O-]
inactive: [2] 97 % of control | [4] 100 % of control | [5] 103 % of control

COc1cccc(CC(C)N)c1OC (configuration not stated)
inactive: endpoint: mean survival time, dose: 25.0 mg/kg/injection, schedule: Q01DX009 (ip), vehicle: saline 98 % of control | endpoint: mean survival time, dose: 50.0 mg/kg/injection, schedule: Q01DX009 (ip), vehicle: saline 95 % of control | endpoint: mean survival time, dose: 100.0 mg/kg/injection, schedule: Q01DX009 (ip), vehicle: saline 93 % of control | [2] 95 % of control
